Measured values: patent US9211310B2, “Use of a Chinese medicine composition in preparing medicaments for treating secondary prevention of myocardial infarction” (TASLY PHARMACEUTICAL GROUP CO., LTD, priority 2010, dated 2015)

Test system: patients after acute myocardial infarction
Assay: Life quality, Seattle Angina Questionnaire (SAQ), same clinical trial
Assay type: in vivo, human
Text: 3508 patients who were in accordance with the diagnostic standards of AMI for 28 days to 2 years and differentiated as Qi deficiency and blood stagnation syndrome by TCM were studied. 0.5 g Chinese medicine composition prepared by the method of EXAMPLE 1 (Coded as QSYQ) was administrated half an hour after meal, 3 times per day.
There were 19 questions in the Seattle angina questionnaire (SAQ), including 5 parts: physical limitation (PL), anginal stability (AS), anginal frequency (AF), treatment satisfaction (TS) and disease perception (DP). After being given necessary explanation by doctors, the questions were answered independently by patients.
They included the overall survival time, angina pectoris score, TCM symptom score and life quality score, where angina pectoris score, TCM symptom score and life quality score were evaluated at randomization, in 1st, 3rd, 6th, 9th, 12th month after treatment and 18th month after follow-up.
All evaluation results of SAQ were described during the period of observation, and Wilcoxon rank sum test was used for inter-group comparison.
The evaluation results in the SAQ were depicted in different observations, and inter-group comparison was tested by Wilcoxon Rank-sum test.

CC(=O)Oc1ccccc1C(=O)O [Control group, aspirine]
SAQ Question 1-4: Slightly limited, percent of patients (9 months after treatment, PP): (32.89%)
SAQ Question 1-5: Mildly limited, number of patients (9 months after treatment, PP): 226
SAQ Question 1-5: Mildly limited, percent of patients (9 months after treatment, PP): (15.75%)
SAQ Question 1-5: Moderately limited, number of patients (9 months after treatment, PP): 77
SAQ Question 1-5: Moderately limited, percent of patients (9 months after treatment, PP): (5.37%)
SAQ Question 1-5: Not limited, number of patients (9 months after treatment, PP): 705
SAQ Question 1-5: Not limited, percent of patients (9 months after treatment, PP): (49.13%)
SAQ Question 1-5: Other reasons, number of patients (9 months after treatment, PP): 10
SAQ Question 1-5: Other reasons, percent of patients (9 months after treatment, PP): (0.70%)
SAQ Question 1-5: Severely limited, number of patients (9 months after treatment, PP): 9
SAQ Question 1-5: Severely limited, percent of patients (9 months after treatment, PP): (0.63%)
SAQ Question 1-5: Slightly limited, number of patients (9 months after treatment, PP): 408
SAQ Question 1-5: Slightly limited, percent of patients (9 months after treatment, PP): (28.43%)
SAQ Question 1-9: Mildly limited, % of cases (9 months after treatment, PP): (19.70%)
SAQ Question 1-9: Mildly limited, cases (9 months after treatment, PP): 275
SAQ Question 1-9: Moderately limited, % of cases (9 months after treatment, PP): (20.92%)
SAQ Question 1-9: Moderately limited, cases (9 months after treatment, PP): 292
SAQ Question 1-9: Not limited, % of cases (9 months after treatment, PP): (4.23%)
SAQ Question 1-9: Not limited, cases (9 months after treatment, PP): 59
SAQ Question 1-9: Other reasons, % of cases (9 months after treatment, PP): (5.80%)
SAQ Question 1-9: Other reasons, cases (9 months after treatment, PP): 81
SAQ Question 1-9: Severely limited, % of cases (9 months after treatment, PP): (32.38%)
SAQ Question 1-9: Severely limited, cases (9 months after treatment, PP): 452
SAQ Question 1-9: Slightly limited, % of cases (9 months after treatment, PP): (16.98%)
SAQ Question 1-9: Slightly limited, cases (9 months after treatment, PP): 237
SAQ 2nd question: 6, % of cases (12 months after treatment, FAS): (0.00%)
SAQ 2nd question: 6, cases (12 months after treatment, FAS): 0
SAQ 2nd question: Clearly increased, % of cases (12 months after treatment, FAS): (1.32%)
SAQ 2nd question: Clearly increased, cases (12 months after treatment, FAS): 23
SAQ 2nd question: Clearly reduced, % of cases (12 months after treatment, FAS): (27.55%)
SAQ 2nd question: Clearly reduced, cases (12 months after treatment, FAS): 480
SAQ 2nd question: Same, % of cases (12 months after treatment, FAS): (37.83%)
SAQ 2nd question: Same, cases (12 months after treatment, FAS): 659
SAQ 2nd question: Slightly increased, % of cases (12 months after treatment, FAS): (3.16%)
SAQ 2nd question: Slightly increased, cases (12 months after treatment, FAS): 55
SAQ 2nd question: Slightly reduced, % of cases (12 months after treatment, FAS): (30.14%)
SAQ 2nd question: Slightly reduced, cases (12 months after treatment, FAS): 525
SAQ 3rd question: 1-2 times per week, % of cases (12 months after treatment, FAS): (30.14%)
SAQ 3rd question: 1-2 times per week, cases (12 months after treatment, FAS): 525
SAQ 3rd question: 1-3 times per day, % of cases (12 months after treatment, FAS): (3.16%)
SAQ 3rd question: 1-3 times per day, cases (12 months after treatment, FAS): 55
SAQ 3rd question: <1 time per week, % of cases (12 months after treatment, FAS): (27.55%)
SAQ 3rd question: <1 time per week, cases (12 months after treatment, FAS): 480
SAQ 3rd question: No onset, % of cases (12 months after treatment, FAS): (0.00%)
SAQ 3rd question: No onset, cases (12 months after treatment, FAS): 0
SAQ 3rd question: ≧3 times per week, % of cases (12 months after treatment, FAS): (37.83%)
SAQ 3rd question: ≧3 times per week, cases (12 months after treatment, FAS): 659
SAQ 3rd question: ≧4 times per day, % of cases (12 months after treatment, FAS): (1.32%)
SAQ 3rd question: ≧4 times per day, cases (12 months after treatment, FAS): 23
SAQ Question 1-3: Mildly limited, number of patients (12 months after treatment, FAS): 54
SAQ Question 1-3: Mildly limited, percent of patients (12 months after treatment, FAS): (3.10%)
SAQ Question 1-3: Moderately limited, number of patients (12 months after treatment, FAS): 11
SAQ Question 1-3: Moderately limited, percent of patients (12 months after treatment, FAS): (0.63%)
SAQ Question 1-3: Not limited, number of patients (12 months after treatment, FAS): 1471
SAQ Question 1-3: Not limited, percent of patients (12 months after treatment, FAS): (84.35%)
SAQ Question 1-3: Other reasons, number of patients (12 months after treatment, FAS): 10
SAQ Question 1-3: Other reasons, percent of patients (12 months after treatment, FAS): (0.57%)
SAQ Question 1-3: Severely limited, number of patients (12 months after treatment, FAS): 2
SAQ Question 1-3: Severely limited, percent of patients (12 months after treatment, FAS): (0.11%)
SAQ Question 1-3: Slightly limited, number of patients (12 months after treatment, FAS): 196
SAQ Question 1-3: Slightly limited, percent of patients (12 months after treatment, FAS): (11.24%)
SAQ Question 1-4: Mildly limited, number of patients (12 months after treatment, FAS): 236
SAQ Question 1-4: Mildly limited, percent of patients (12 months after treatment, FAS): (13.53%)
SAQ Question 1-4: Moderately limited, number of patients (12 months after treatment, FAS): 66
SAQ Question 1-4: Moderately limited, percent of patients (12 months after treatment, FAS): (3.78%)
SAQ Question 1-4: Not limited, number of patients (12 months after treatment, FAS): 853
SAQ Question 1-4: Not limited, percent of patients (12 months after treatment, FAS): (48.91%)
SAQ Question 1-4: Other reasons, number of patients (12 months after treatment, FAS): 11
SAQ Question 1-4: Other reasons, percent of patients (12 months after treatment, FAS): (0.63%)
SAQ Question 1-4: Severely limited, number of patients (12 months after treatment, FAS): 13
SAQ Question 1-4: Severely limited, percent of patients (12 months after treatment, FAS): (0.75%)
SAQ Question 1-4: Slightly limited, number of patients (12 months after treatment, FAS): 565
SAQ Question 1-4: Slightly limited, percent of patients (12 months after treatment, FAS): (32.40%)
SAQ Question 1-5: Mildly limited, number of patients (12 months after treatment, FAS): 260
SAQ Question 1-5: Mildly limited, percent of patients (12 months after treatment, FAS): (14.92%)
SAQ Question 1-5: Moderately limited, number of patients (12 months after treatment, FAS): 79
SAQ Question 1-5: Moderately limited, percent of patients (12 months after treatment, FAS): (4.53%)
